Data on 8 compounds can be found in BindingDB's records for doi:10.1021/jm020871e (University of Bonn, 2002).

The target of the experiment is Muscarinic acetylcholine receptor M2 (Sus scrofa) (UniProt P06199). As to the kind of experiment: Binding of [3H]N-methylscopolamine at porcine heart Muscarinic acetylcholine receptor M2 that inhibits the dissociation of [3H]NMS half maximally (pEC50diss) was reported.

Molecules are shown by their SMILES.

Muscarinic acetylcholine receptor M2 (Sus scrofa), sequence (P06199 whole entry, looked up): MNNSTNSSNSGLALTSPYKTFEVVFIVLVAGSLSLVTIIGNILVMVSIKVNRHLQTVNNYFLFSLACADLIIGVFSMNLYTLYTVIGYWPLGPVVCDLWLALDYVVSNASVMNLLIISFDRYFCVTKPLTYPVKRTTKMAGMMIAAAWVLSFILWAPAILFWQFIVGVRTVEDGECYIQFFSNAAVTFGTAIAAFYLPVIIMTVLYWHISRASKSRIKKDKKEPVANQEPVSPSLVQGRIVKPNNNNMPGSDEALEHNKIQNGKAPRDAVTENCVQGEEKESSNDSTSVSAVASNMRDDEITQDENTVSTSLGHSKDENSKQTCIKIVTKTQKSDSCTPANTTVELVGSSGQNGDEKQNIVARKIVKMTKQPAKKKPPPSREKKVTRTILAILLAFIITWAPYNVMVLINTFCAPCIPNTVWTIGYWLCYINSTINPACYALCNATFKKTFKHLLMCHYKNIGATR

As for `Cc1ccc2c(c1)C(=O)N(CCC[N+](C)(C)CCCCCC[N+](C)(C)CCCN1C(=O)c3ccccc3C1=O)C2=O`, the EC50 (usually the concentration at which the effect is half-maximal) is 324 nM.

Compound `Cc1ccc2c(c1)C(=O)N(CCC[N+](C)(C)CCCCCC[N+](C)(C)CCCN1C(=O)c3ccc(C)cc3C1=O)C2=O` had an EC50 of 170 nM.

`CC(C)(CN1C(=O)c2ccccc2C1=O)C[N+](C)(C)CCCCCC[N+](C)(C)CCCN1C(=O)c2ccccc2C1=O` gave an EC50 of 135 nM.

`CC(C)(CN1C(=O)c2ccccc2C1=O)C[N+](C)(C)CCCCCC[N+](C)(C)CC(C)(C)CN1C(=O)c2ccccc2C1=O` displayed an EC50 of 178 nM.

Compound `Cc1ccc2c(c1)C(=O)N(CC(C)(C)C[N+](C)(C)CCCCCC[N+](C)(C)CC(C)(C)CN1C(=O)c3ccc(C)cc3C1=O)C2=O` displayed an EC50 of 47 nM. This EC50 is about 3.8-fold lower than that of the compound before.

For `Cc1ccc2c(c1)C(=O)N(CCC[N+](C)(C)CCCCCC[N+](C)(C)CC(C)(C)CN1C(=O)c3ccc(C)cc3C1=O)C2=O`, the half-maximal effective concentration (EC50) was determined as 36 nM.

As to `Cc1ccc2c(c1)C(=O)N(CC(C)(C)C[N+](C)(C)CCCCCC[N+](C)(C)CCCN1C(=O)c3ccccc3C1=O)C2=O`, the 50% effective concentration (EC50) worked out at 55 nM. This EC50 is about 1.5-fold higher than that of the compound before.

`Cc1ccc2c(c1)C(=O)N(CCC[N+](C)(C)CCCCCC[N+](C)(C)CC(C)(C)CN1C(=O)c3ccccc3C1=O)C2=O` registered a 50% effective concentration (EC50) of 71 nM.
